# Laboratory results as given in article PMC3626541, “A first in human, safety, pharmacokinetics, and clinical activity phase I study of once weekly administration of the Hsp90 inhibitor ganetespib (STA-9090) in patients with solid malignancies” (BMC Cancer, 2013).
# “Also recorded” adds a separate entry of the source.
# What was measured:
# [1] = tested on: patients with advanced solid tumors; parameters: method as in unpublished observation; conditions: over 400 patients treated in other studies; ref unpublished observation; cited from earlier work
# [2] = Plasma pharmacokinetics (HPLC-MS/MS, non-compartmental); assay type: in vivo, human
# Experimental: Blood samples were taken for ganetespib plasma concentration determination on Days 1 and 15 of Cycle 1 pre-dose, 0.5, 1, 1.5, 2, 4, 6, 8 and 24 h after infusion initiation. Samples were also drawn pre-dose and at 1 h, on Day 8 of Cycle 1 and Days 1, 8 and 15 of subsequent cycles. Plasma was separated and stored at a −70°C until analysis. Analyses were performed by a validated HPLC-MS/MS method under GLP conditions at Synta Pharmaceuticals Corp. Calibration curve coefficients of determination (r^2) ranged from 0.9897 to 0.9992. Back-calibrated calibration standards were in good agreement with QC samples with bias ≤ ± 3%, and calibration-curve r^2 variation was ≤ ± 6.5% across a concentration range of 0.100 through 100 ng/ml.
# Pharmacokinetic parameters were computed non-compartmentally using standard methods within a validated installation of WinNonlin (v4.1, Pharsight Corporation, St. Louis, MO). Parameters included the maximum concentration (Cmax), area under the plasma concentration versus time curve (AUC), time of maximum concentration (Tmax), and terminal elimination half-life (t1/2).
# [3] = tested on: patients with advanced solid tumors; experiment: Dose escalation: dose-limiting toxicity, MTD and RP2D; assay type: in vivo, human
# Experimental: Ganetespib was administered over a 1-hour infusion, once weekly for 3 weeks of a 4-week cycle. Intra-patient dose escalation was allowed to dose levels shown to be safe and tolerable. The starting dose (7 mg/m^2) was selected based on a conservative estimate using the highest non-severely toxic dose established in a once-weekly, 4-week repeat dose study in cynomolgus monkeys. […] Each cohort consisted of 3 patients, with expansion to 6 patients if 1 of the 3 initial patients experienced a DLT, which was defined as: Grade 4 thrombocytopenia (or Grade 3 with hemorrhage); Grade 4 neutropenia lasting > 7 days (or Grade 3 with fever); Grade 4 anemia; ≥ Grade 3 non-hematologic toxicity (except alopecia); and ≥ Grade 3 hypersensitivity despite premedication. Doses were escalated after all patients in the preceding dose cohort had completed Cycle 1. […] The RP2D was defined as the dose of ganetespib below which 2 of 3 or 2 of 6 patients experienced a DLT.
# [4] = tested on: advanced solid tumors; experiment: Tumor response (RECIST v1.0); assay type: in vivo, human; conditions: for Disease control rate (≥ 8 weeks): complete and partial responses, and stable disease ≥ 8 weeks; for Disease control rate (≥ 16 weeks): complete and partial responses, and stable disease ≥ 16 weeks; for Best response: Complete response / Best response: Non-evaluable / Best response: Partial response / Best response: Progressive disease / Best response: Stable disease: investigator-evaluated
# Experimental: Patients’ demographics and medical history were recorded at baseline. Physical examination and PS were assessed at baseline and on Day 1 of each cycle. Adverse events (AEs), vital signs, hematology and chemistry values, and creatinine clearance were assessed at baseline and weekly during treatment. Toxicity was graded using National Cancer Institute Common Terminology Criteria for Adverse Events (NCI CTCAE), version 3.0. An electrocardiogram (ECG) was performed at baseline, before and after treatment on Days 1 and 15 of Cycles 1 and 2, and on Day 15 of even-numbered cycles thereafter. CT scans were done at baseline and every 8 weeks thereafter. Tumor response was assessed using Response Evaluation Criteria in Solid Tumors (RECIST, v1.0), with confirmation of responses performed at least 4 weeks later.
# [5] = tested on: HSP70 protein in plasma; experiment: HSP70 protein in plasma by ELISA; assay type: in vivo, human; conditions: for Peak circulating plasma HSP70 level: NSCLC patient, 150 mg/m^2
# Experimental: Pre-dose blood samples on Days 1, 8 and 15 of Cycle 1 and 2 were collected for assessment of HSP70 protein in plasma by ELISA. Assays were performed using high sensitivity HSP70 ELISA kits (Assay Design, Ann Arbor, Michigan), with a sensitivity limit as low as 90 pg/ml, according to manufacturers’ instructions. Results were detected using a microplate ELISA reader at 450 nm with a correction wavelength of 540 nm. Concentrations of HSP70 were normalized to the total protein in each plasma sample.
# [6] = 1-hour IV infusion, across doses
# [7] = one NSCLC patient, 150 mg/m^2, BRAF G469A mutation
compound,measurement,setting,value
"CC(C)c1cc(-c2n[nH]c(=O)n2-c2ccc3c(ccn3C)c2)c(O)cc1O [Ganetespib, 5-[2,4-dihydroxy-5-(1 methyl-ethyl)phenyl]-2,4 dihydro-4-(1-methyl-1H indol-5 yl)-3H-1,2,4 triazole-3-one]",Incidence of treatment related visual changes,[1],< 3%
same,Tmax occurrence at the time of the 0.5 h sample,[2]; 1-hour IV infusion,39 % of drug administrations
same,Mean steady state volume of distribution (Vss),[2]; [6],107 ± 98 L/m^2
same,Plasma drug clearance,[2]; [6],28.55 ± 9.33 L/h/m^2
same,Tmax,"[2]; human, plasma, 1-hour IV infusion",0.79 h
same,Vd,"[2]; human, plasma, 1-hour IV infusion, across doses, read-out: Mean steady state volume of distribution (Vss)",196 ± 172 L
same,clearance,"[2]; human, plasma, 1-hour IV infusion, across doses, read-out: Plasma drug clearance (converted)",877 mL/min
same,half-life,"[2]; human, plasma, 1-hour IV infusion, across doses, read-out: Terminal t1/2 (mean ± SD) (converted)",~7.54 h
same,Drug accumulation,"[2]; once-weekly doses, Day 1 vs Day 15",no apparent drug accumulation
same,Coefficient of variation for clearance,[2]; overall variability in exposure,33.8%
same,Plasma concentration as % of Cmax,[2]; within 8 to 10 h,~1 % of Cmax
same,Plasma concentration as % of Cmax,[2]; within 1 h of infusion termination,approximately 10 % of Cmax
same,DLT: Grade 3 elevated serum amylase,[3]; 150 mg/m^2 dose level,one Grade 3 amylase elevation; also recorded: one patient
same,DLT: Grade 3 and 4 asthenia,[3]; 259 mg/m^2 dose level,one Grade 3 and one Grade 4 asthenia; also recorded: two patients
same,DLT: Grade 3 diarrhea,"[3]; 259 mg/m^2 dose level, expanded to 6 patients",one Grade 3 diarrhea; also recorded: one additional patient
same,Patients experiencing DLT,[3]; 7–114 mg/m^2 cohort,None of the patients
same,Maximum tolerated dose (MTD),[3]; 1 hour IV infusion once weekly for 3 weeks of a 4-week cycle,216 mg/m^2
same,Recommended phase II dose (RP2D),"[3]; human, in vivo, iv, 4 weeks",200 mg/m^2
same,Grade 3 fatigue (would have been dose-limiting in dose-escalation phase),[3]; in vivo,One patient
same,Disease control rate (≥ 8 weeks),"[4]; 259 mg/m^2, n = 6",2 (33.3) n (%)
same,Disease control rate (≥ 16 weeks),"[4]; 259 mg/m^2, n = 6",2 (33.3) n (%)
same,Best response: Complete response,"[4]; 259 mg/m^2, n = 6",0 n (%)
same,Best response: Non-evaluable,"[4]; 259 mg/m^2, n = 6",1 (16.7) n (%)
same,Best response: Partial response,"[4]; 259 mg/m^2, n = 6",0 n (%)
same,Best response: Progressive disease,"[4]; 259 mg/m^2, n = 6",3 (50) n (%)
same,Best response: Stable disease,"[4]; 259 mg/m^2, n = 6",2 (33.3) n (%)
same,Disease control rate (≥ 8 weeks),"[4]; 7-114 mg/m^2, n = 25",11 (44) n (%)
same,Disease control rate (≥ 16 weeks),"[4]; 7-114 mg/m^2, n = 25",5 (20) n (%)
same,Best response: Complete response,"[4]; 7-114 mg/m^2, n = 25",0 n (%)
same,Best response: Non-evaluable,"[4]; 7-114 mg/m^2, n = 25",4 (16) n (%)
same,Best response: Partial response,"[4]; 7-114 mg/m^2, n = 25",1 (4) n (%)
same,Best response: Progressive disease,"[4]; 7-114 mg/m^2, n = 25",10 (40) n (%)
same,Best response: Stable disease,"[4]; 7-114 mg/m^2, n = 25",10 (40) n (%)
same,Patients with SD for at least 8 weeks,[4]; 10 patients with NSCLC,60%
same,Duration of SD (range),[4]; 23 patients with SD,46 to 563 days
same,Disease control rate (≥ 8 weeks),"[4]; 150-216 mg/m^2, n = 22",11 (50) n (%)
same,Disease control rate (≥ 16 weeks),"[4]; 150-216 mg/m^2, n = 22",6 (27.3) n (%)
same,Best response: Complete response,"[4]; 150-216 mg/m^2, n = 22",0 n (%)
same,Best response: Non-evaluable,"[4]; 150-216 mg/m^2, n = 22",6 (27.3) n (%)
same,Best response: Partial response,"[4]; 150-216 mg/m^2, n = 22",0 n (%)
same,Best response: Progressive disease,"[4]; 150-216 mg/m^2, n = 22",5 (22.7) n (%)
same,Best response: Stable disease,"[4]; 150-216 mg/m^2, n = 22",11 (50) n (%)
same,Disease control rate (≥ 8 weeks),"[4]; Overall response, n = 53",24 (45.3) n (%)
same,Disease control rate (≥ 16 weeks),"[4]; Overall response, n = 53",13 (24.5) n (%)
same,Best response: Complete response,"[4]; Overall response, n = 53",0 n (%)
same,Best response: Non-evaluable,"[4]; Overall response, n = 53",11 (20.8) n (%)
same,Best response: Partial response,"[4]; Overall response, n = 53",1 (1.9) n (%)
same,Best response: Progressive disease,"[4]; Overall response, n = 53",18 (34) n (%)
same,Best response: Stable disease,"[4]; Overall response, n = 53",23 (43.4) n (%)
same,Disease control rate (PR and SD ≥ 16 weeks),[4]; all patients,24.5%
same,Patients with SD,[4]; all patients,43.4%
same,Doses generally associated with disease stabilization,[4]; heavily pre-treated patients with metastatic cancers,higher than 80 mg/m^2
same,Patients with PR,[4]; metastatic colorectal cancer,One patient
same,Maximum reduction in target lesions,[4]; [7],26.5%
same,Time on study,[4]; [7],13 months
same,Maximum reduction in target lesions,"[4]; one patient with metastatic GIST, 216 mg/m^2, PDGFRA^D842V exon 18 mutation",18%
same,Duration of disease stabilization,"[4]; one patient with neuroendocrine tumor, 259 mg/m^2",over 20 months
same,Peak circulating plasma HSP70 level,[5]; Cycle 1,750 ng/g
same,Peak circulating plasma HSP70 level,[5]; Cycle 2,730 ng/g
same,Hsp70 plasma protein levels versus baseline,"[5]; Days 8 and 15, pre-dose, majority of patients",significantly elevated
same,Dose levels at which Hsp70 induction saturates,[5]; mean maximum increase of HSP70 in Cycle 1,above 180 mg/m^2
same,Persistence of elevated HSP70 protein plasma levels following drug exposure,[5]; post treatment,over a week; also recorded: at least a week
